Columns and labels:
rice = test: Test B flooded paddy test; type: in vivo, Oryza sativa; settings: Flood, 250 g ai/ha; 0 to 100 scale where 0 is no effect and 100 is complete control
How it was run: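 Evaluation is visual, against untreated controls, 13 to 15 days after treatment. Before treatment, plants reached the 2-leaf stage; pots were then flooded 3 cm deep, compound was added to the water, and that level was maintained. Ratings run 0 to 100, with 100 meaning complete control.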

barnyardgrass [1] = test: Test C preemergence; type: in vivo, Echinochloa crus-galli; settings: for Barnyardgrass plant response rating: preemergence; for Plant response rating, Barnyardgrass: Preemergence, 31 g ai/ha, scale 0 to 100, 0 no effect, 100 complete control
How it was run: (§1)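 Plants were kept under greenhouse conditions for 13–15 days following spray. Pre-emergent application went to soil (loam–sand), post-emergent to foliage at 1–4 leaves. Evaluation: visual, percent control against untreated checks.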

oilseed rape = test: Test C postemergence; type: in vivo, Brassica napus; settings: for Plant response rating, Oilseed Rape: scale 0 to 100 (0 no effect, 100 complete control)
How it was run: as §1

barnyardgrass [2] = test: Test A preemergence; type: in vivo, Echinochloa crus-galli; settings: for Plant response rating, Barnyardgrass: 125 g ai/ha; for Barnyardgrass plant response rating: 500 g ai/ha
How it was run: (§2)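 Visual injury scored 0–100 (100 = complete control) against untreated controls about 10 days after treatment in a greenhouse. Test chemicals, formulated with surfactant in non-phytotoxic solvent, were sprayed on soil preemergence or on 2-10 cm, one- to two-leaf plants postemergence.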

soybean [3] = test: Test C postemergence; type: in vivo, Glycine max; settings: for Plant response rating, Soybean: scale 0 to 100 (0 no effect, 100 complete control)
How it was run: as §1

giant foxtail = test: Test C postemergence; type: in vivo, Setaria faberii
How it was run: as §1

soybean [4] = test: Test C preemergence; type: in vivo, Glycine max; settings: for Soybean plant response rating: preemergence; for Plant response rating, Soybean: Preemergence, 31 g ai/ha, scale 0 to 100, 0 no effect, 100 complete control
How it was run: as §1

large (Lg) crabgrass = test: Test C preemergence; type: in vivo, Digitaria sanguinalis; settings: for Crabgrass, Large plant response rating: preemergence; for Plant response rating, Crabgrass, Large: Preemergence, 31 g ai/ha, scale 0 to 100, 0 no effect, 100 complete control
How it was run: as §1

wheat, winter = test: Test C preemergence; type: in vivo, Triticum aestivum; settings: for Wheat plant response rating: preemergence; for Plant response rating, Wheat: Preemergence, 31 g ai/ha, scale 0 to 100, 0 no effect, 100 complete control
How it was run: as §1

blackgrass [5] = test: Test C preemergence; type: in vivo, Alopecurus myosuroides; settings: for Blackgrass plant response rating: preemergence; for Plant response rating, Blackgrass: Preemergence, 31 g ai/ha, scale 0 to 100, 0 no effect, 100 complete control
How it was run: as §1

blackgrass [6] = test: Test C postemergence; type: in vivo, Alopecurus myosuroides
How it was run: as §1

wheat = test: Test A postemergence; type: in vivo, Triticum aestivum; settings: 0 to 100 scale where 0 is no effect and 100 is complete control
How it was run: as §2

ragweed = test: Test C postemergence; type: in vivo, Ambrosia elatior; settings: for Plant response rating, Ragweed: scale 0 to 100 (0 no effect, 100 complete control)
How it was run: as §1

[7] = 16 g ai/ha, scale 0 to 100 (0 no effect, 100 complete control)
[8] = 62 g ai/ha, scale 0 (no effect) to 100 (complete control)
[9] = 125 g ai/ha, scale 0 (no effect) to 100 (complete control)
[10] = Postemergence, 31 g ai/ha, 13 to 15 days
[11] = 0 to 100 scale where 0 is no effect and 100 is complete control
[12] = 16 g ai/ha, postemergence, visual rating, scale 0 to 100 (0 no effect, 100 complete control), 13 to 15 days
[13] = Postemergence, 31 g ai/ha, scale 0 to 100 (0 no effect, 100 complete control), 13 to 15 days
[14] = Postemergence, 62 g ai/ha, scale 0 to 100 (0 no effect, 100 complete control)
[15] = 16 g ai/ha, postemergence, 0 is no effect, 100 is complete control
[16] = 125 g ai/ha, postemergence, visual rating
[17] = 125 g ai/ha, postemergence, visual rating, scale 0 to 100 (0 no effect, 100 complete control)

## CCOc1cnn(-c2c(C#N)cccc2Oc2ncc(F)cn2)c1 [Compound 89]
rice
  Plant response rating, Rice: 20
Barnyardgrass [1]; [7]
  Barnyardgrass plant response rating: 5
Barnyardgrass [1]; [8]
  Barnyardgrass plant response rating: 70
Barnyardgrass [1]; [9]
  Barnyardgrass plant response rating: 100
Barnyardgrass [1]
  Plant response rating, Barnyardgrass: 35
Oilseed rape; 125 g ai/ha, postemergence
  Plant response rating (0 to 100), Oilseed Rape: 60
Oilseed rape; [10]
  Plant response rating, Oilseed Rape: 25
Oilseed rape; Postemergence, 62 g ai/ha
  Plant response rating, Oilseed Rape: 55
Barnyardgrass [2]; [11]
  Plant response rating, Barnyardgrass: 60
Barnyardgrass [2]; 0 to 100 scale, 0 no effect, 100 complete control, approx. 10 days
  Barnyardgrass plant response rating: 90
Soybean [3]; 125 g ai/ha, postemergence
  Plant response rating (0 to 100), Soybean: 95
Soybean [3]; [10]
  Plant response rating, Soybean: 65
Soybean [3]; Postemergence, 62 g ai/ha
  Plant response rating, Soybean: 90
Giant foxtail; [12]
  Foxtail, Giant plant response rating: 5
Giant foxtail; 125 g ai/ha, postemergence
  Plant response rating (0 to 100), Foxtail, Giant: 10
Giant foxtail; [13]
  Plant response rating, Foxtail, Giant: 5
Giant foxtail; [14]
  Plant response rating, Foxtail, Giant: 5
Soybean [4]; [7]
  Soybean plant response rating: 30
Soybean [4]; [8]
  Soybean plant response rating: 90
Soybean [4]; [9]
  Soybean plant response rating: 98
Soybean [4]
  Plant response rating, Soybean: 45
Large (Lg) crabgrass; [7]
  Crabgrass, Large plant response rating: 80
Large (Lg) crabgrass; [8]
  Crabgrass, Large plant response rating: 100
Large (Lg) crabgrass; [9]
  Crabgrass, Large plant response rating: 100
Large (Lg) crabgrass
  Plant response rating, Crabgrass, Large: 100
wheat, winter; [7]
  Wheat plant response rating: 0
wheat, winter; [8]
  Wheat plant response rating: 0
wheat, winter; [9]
  Wheat plant response rating: 5
wheat, winter
  Plant response rating, Wheat: 0
Blackgrass [5]; [7]
  Blackgrass plant response rating: 0
Blackgrass [5]; [8]
  Blackgrass plant response rating: 5
Blackgrass [5]; [9]
  Blackgrass plant response rating: 50
Blackgrass [5]
  Plant response rating, Blackgrass: 0
Blackgrass [6]; [12]
  Blackgrass plant response rating: 0
Blackgrass [6]; 125 g ai/ha, postemergence
  Plant response rating (0 to 100), Blackgrass: 5
Blackgrass [6]; [13]
  Plant response rating, Blackgrass: 0
Blackgrass [6]; [14]
  Plant response rating, Blackgrass: 5
wheat; 125 g ai/ha
  Plant response rating, Wheat: 20
wheat; 500 g ai/ha
  Plant response rating, Wheat: 70
ragweed; 125 g ai/ha, postemergence
  Plant response rating (0 to 100), Ragweed: 70
ragweed; [10]
  Plant response rating, Ragweed: 40
ragweed; Postemergence, 62 g ai/ha
  Plant response rating, Ragweed: 60

## Clc1cnc(Oc2cccc(Br)c2-n2cc(Br)nn2)nc1 [Compound 129]
rice
  Plant response rating, Rice: 0
Barnyardgrass [1]; [7]
  Barnyardgrass plant response rating: 5
Barnyardgrass [1]; [8]
  Barnyardgrass plant response rating: 40
Barnyardgrass [1]; [9]
  Barnyardgrass plant response rating: 90
Barnyardgrass [1]
  Plant response rating, Barnyardgrass: 15
Oilseed rape; [15]
  Plant response rating (0 to 100), Oilseed Rape: 5
Oilseed rape; [16]
  Plant response rating, Oilseed Rape: 60
Oilseed rape; Postemergence, 62 g ai/ha
  Plant response rating, Oilseed Rape: 60
Barnyardgrass [2]; [11]
  Plant response rating, Barnyardgrass: 70
  Barnyardgrass plant response rating: 90
Soybean [3]; [15]
  Plant response rating (0 to 100), Soybean: 35
Soybean [3]; [16]
  Plant response rating, Soybean: 60
Soybean [3]; Postemergence, 62 g ai/ha
  Plant response rating, Soybean: 85
Giant foxtail; [15]
  Plant response rating (0 to 100), Foxtail, Giant: 5
Giant foxtail; [17]
  Plant response rating, Foxtail, Giant: 10
Giant foxtail; [14]
  Plant response rating, Foxtail, Giant: 5
Soybean [4]; [7]
  Soybean plant response rating: 10
Soybean [4]; [8]
  Soybean plant response rating: 40
Soybean [4]; [9]
  Soybean plant response rating: 80
Soybean [4]
  Plant response rating, Soybean: 10
Large (Lg) crabgrass; [7]
  Crabgrass, Large plant response rating: 75
Large (Lg) crabgrass; [8]
  Crabgrass, Large plant response rating: 100
Large (Lg) crabgrass; [9]
  Crabgrass, Large plant response rating: 100
Large (Lg) crabgrass
  Plant response rating, Crabgrass, Large: 95
wheat, winter; [7]
  Wheat plant response rating: 0
wheat, winter; [8]
  Wheat plant response rating: 0
wheat, winter; [9]
  Wheat plant response rating: 15
wheat, winter
  Plant response rating, Wheat: 0
Blackgrass [5]; [7]
  Blackgrass plant response rating: 0
Blackgrass [5]; [8]
  Blackgrass plant response rating: 5
Blackgrass [5]; [9]
  Blackgrass plant response rating: 90
Blackgrass [5]
  Plant response rating, Blackgrass: 50
Blackgrass [6]; [15]
  Plant response rating (0 to 100), Blackgrass: 5
Blackgrass [6]; [17]
  Plant response rating, Blackgrass: 10
Blackgrass [6]; [13]
  Plant response rating, Blackgrass: 5
Blackgrass [6]; [14]
  Plant response rating, Blackgrass: 5
wheat; 125 g ai/ha
  Wheat plant response rating: 0
wheat; 500 g ai/ha
  Plant response rating, Wheat: 70
ragweed; [15]
  Plant response rating (0 to 100), Ragweed: 15
ragweed; [16]
  Plant response rating, Ragweed: 85
ragweed; Postemergence, 62 g ai/ha
  Plant response rating, Ragweed: 40

— patent US9695155B2, “Herbicidal substituted pyrimidinyloxy benzene compounds” (E. I. DU PONT DE NEMOURS AND COMPANY, priority 2013, dated 2017)
